Data as given in patent US20090274773A1, “ANTIPROLIFERATIVE COMBINATION COMPRISING CYC-682 AND A CYTOTOXIC AGENT” (Cyclacel Limited, priority 2005, published 2009).

Tests used:
[1] = test system: panel of human cancer cell lines; assay: Antiproliferative effects as single agent in a panel of human cancer cell lines (MTT); type: cell-based
Procedure: The MTT assay was carried out as described previously (Hansen M B, Nielsen S E, Berg K. Re-examination and further development of a precise and rapid dye method for measuring cell growth/cell kill. J Immunol Methods. 1989 May 12; 119(2):203-10). In brief, cells were seeded in 96-well tissue culture plates at a density of 2×10^3 cells/well. Cell viability was determined after a 120-hour incubation, by the calorimetric conversion of yellow, water-soluble tetrazolium MTT (3-[4,5-dimethylthiazol-2-yl]-2,5-diphenyltetrazolium bromide; Sigma, Saint-Quentin Fallavier, France), into purple, water-insoluble formazan. This reaction is catalyzed by mitochondrial dehydrogenases and is used to estimate the relative number of viable cells (Mosmann, T, Rapid calorimetric assay for cellular growth and survival: application to proliferation and cytotoxicity assays. J Immunol Methods. 1983 Dec. 16; 65 (1-2):55-63). Cells were incubated with 0.4 mg/ml MTT for 4 hours at 37° C. After incubation, the supernatant was discarded, the cell pellet was resuspended in 0.1 ml of DMSO and the absorbance was measured at 560 nm using a microplate reader (Dynatech, Michigan). […]
The cells were seeded at 2×10^3 cells/well in 96-well plates and treated 24 hours later with increasing concentrations of CYC682. […] Growth inhibition was then determined by the MTT assay. […]

HCT116 = assay: MTT growth inhibition assay, single agent; type: cell-based, human; conditions: Homo sapiens, HCT-116, 48 hours exposure, read-out: Antiproliferative effects IC50s (MTT assay)
Procedure: (§1) All cell lines were obtained from the ATCC (Rockville, Md.). Cells were grown as monolayers in RPMI medium supplemented with 10% fetal calf serum (Invitrogen, Cergy-Pontoise, France), 2 mM glutamine, 100 units/ml penicillin and 100 μg/ml streptomycin. All cells were split twice a week using trypsin/EDTA (0.25% and 0.02%, respectively; Invitrogen, Cergy-Pontoise, France) and seeded at a concentration of 2.5×10^4 cells/ml. All cell lines were tested regularly for Mycoplasma contamination by PCR using a Stratagene kit (La Jolla, Calif.).
(§2) The MTT assay was carried out as described previously (Hansen M B, Nielsen S E, Berg K. Re-examination and further development of a precise and rapid dye method for measuring cell growth/cell kill. J Immunol Methods. 1989 May 12; 119(2):203-10). In brief, cells were seeded in 96-well tissue culture plates at a density of 2×10^3 cells/well. Cell viability was determined after a 120-hour incubation, by the calorimetric conversion of yellow, water-soluble tetrazolium MTT (3-[4,5-dimethylthiazol-2-yl]-2,5-diphenyltetrazolium bromide; Sigma, Saint-Quentin Fallavier, France), into purple, water-insoluble formazan. This reaction is catalyzed by mitochondrial dehydrogenases and is used to estimate the relative number of viable cells (Mosmann, T, Rapid calorimetric assay for cellular growth and survival: application to proliferation and cytotoxicity assays. J Immunol Methods. 1983 Dec. 16; 65 (1-2):55-63). Cells were incubated with 0.4 mg/ml MTT for 4 hours at 37° C. After incubation, the supernatant was discarded, the cell pellet was resuspended in 0.1 ml of DMSO and the absorbance was measured at 560 nm using a microplate reader (Dynatech, Michigan). Wells with untreated cells or with drug-containing medium without cells were used as positive and negative controls, respectively. Growth inhibition curves were plotted as a percentage of untreated control cells.
(§3) The cells were seeded at 2×10^3 cells/well in 96-well plates and treated 24 hours later with increasing concentrations of CYC682. After incubation times of 1 hour, 24 hours or 48 hours, the cells were washed and post-incubated in drug-free medium for 72 hours. Growth inhibition was then determined by the MTT assay.

MCF7 = assay: MTT growth inhibition assay, single agent; type: cell-based, human; conditions: Homo sapiens, 48 hours exposure, read-out: Antiproliferative effects IC50s (MTT assay)
Procedure: as §1, §2, §3

HOP92 = assay: MTT growth inhibition assay, single agent; type: cell-based, human; conditions: Homo sapiens, HOP-92, 48 hours exposure, read-out: Antiproliferative effects IC50s (MTT assay)
Procedure: as §1, §2, §3

COLO205 = assay: MTT growth inhibition assay, single agent; type: cell-based, human; conditions: Homo sapiens, COLO 205, 48 hours exposure, read-out: Antiproliferative effects IC50s (MTT assay)
Procedure: as §1, §2, §3

OVCAR1 = assay: MTT growth inhibition assay, single agent; type: cell-based, human; conditions: Homo sapiens, 48 hours exposure, read-out: Antiproliferative effects IC50s (MTT assay)
Procedure: as §1, §2, §3

MDA-MB-435 = assay: MTT growth inhibition assay, single agent; type: cell-based, human; conditions: Homo sapiens, 48 hours exposure, read-out: Antiproliferative effects IC50s (MTT assay)
Procedure: as §1, §2, §3

HT29 = assay: MTT growth inhibition assay, single agent; type: cell-based, human; conditions: Homo sapiens, HT-29, 48 hours exposure, read-out: Antiproliferative effects IC50s (MTT assay)
Procedure: as §1, §2, §3

HCC2998 = assay: MTT growth inhibition assay, single agent; type: cell-based, human; conditions: Homo sapiens, HCC 2998, 48 hours exposure, read-out: Antiproliferative effects IC50s (MTT assay)
Procedure: as §1, §2, §3

IGROV1 = assay: MTT growth inhibition assay, single agent; type: cell-based, human; conditions: Homo sapiens, IGROV-1, 48 hours exposure, read-out: Antiproliferative effects IC50s (MTT assay)
Procedure: as §1, §2, §3

HOP62 = assay: MTT growth inhibition assay, single agent; type: cell-based, human; conditions: Homo sapiens, HOP-62, 48 hours exposure, read-out: Antiproliferative effects IC50s (MTT assay)
Procedure: as §1, §2, §3

[2] = phase I, patients with a variety of cancers; cited from earlier work
colon cancer = conditions: cited from earlier work

| Compound | Cytotoxicity after 24 hour exposure ([1]; 24 hour exposure, panel of cell lines) | IC50 (HCT116) | IC50 (MCF7) | IC50 (HOP92) | IC50 (COLO205) | IC50 (OVCAR1) | IC50 (MDA-MB-435) | IC50 (HT29) | IC50 (HCC2998) | IC50 (IGROV1) | IC50 (HOP62) | Antiproliferative activity in panel ([1]; most cancer cell lines) | Dose limiting toxicity [2] | Tolerability in humans [2] | Anticancer activity in a model of colon cancer (colon cancer; in vivo) | Increasing survival and preventing spread of colon cancer metastases to the liver, versus gemcitabine or 5-FU (colon cancer; same colon cancer model) |
| --- | --- | --- | --- | --- | --- | --- | --- | --- | --- | --- | --- | --- | --- | --- | --- | --- |
| N#C[C@H]1[C@H](O)[C@@H](CO)O[C@H]1n1ccc(N)nc1=O [CNDAC, 1-(2-C-Cyano-2-deoxy-β-D-arabino-pentafuranosyl)-cytosine] | not sufficient | 2.8 ± 0.6 µM | 850 ± 60 µM | 23 ± 6 µM | 8 ± 2 µM | > 900 µM | 95 ± 13 µM | 160 ± 43 µM | 110 ± 21 µM | 89 ± 12 µM | 7 ± 1.8 µM | – | – | – | – | – |
| CCCCCCCCCCCCCCCC(=O)Nc1ccn([C@@H]2O[C@H](CO)[C@@H](O)[C@@H]2C#N)c(=O)n1 [CYC682, 2′-cyano-2′-deoxy-N^4-palmitoyl-1-β-D-arabinofuranosylcytosine] | – | 3 ± 0.6 µM | 7 ± 1.8 µM | 38 ± 8 µM | 5 ± 0.8 µM | 45 ± 7 µM | 67 ± 14 µM | 4.5 ± 0.7 µM | 3.5 ± 0.8 µM | 6.5 ± 1.6 µM | 6 ± 1.7 µM | antiproliferative activity at micromolar concentrations | myelosuppression | well tolerated | strong anticancer activity | superior |
